Measured values from patent publication US20210145838A1, “SELECTIVE PDE4D INHIBITORS AGAINST DEMYELINATING DISEASES” (Universiteit Hasselt, priority 2018, published 2021).

How the values were obtained:
mice with EAE = assay: Experimental autoimmune encephalomyelitis (EAE) clinical score; format: in vivo, mouse; settings: prophylactic, 27 days
Procedure: Fifty-six ten-weeks-old female C57bl6 mice were immunized in the flank and neck with 200 μg/mouse MOG35-55 peptide (Hooke) emulsified in Complete Freund's Adjuvant containing Mycobacterium tuberculosis. Immediately after immunization, treatment was started and lasted for 27 days. Treatment consisted of twice a day a s.c. injection with a 1% DMSO in 0.5% methylcellulose solution, roflumilast (0.3 mg/kg or 3 mg/kg in vehicle) or gebr32a (0.3 mg/kg in vehicle). All animals were sacrificed at day 27. Animals were neurologically scored for clinical signs on a daily basis using the following scores: 0=normal behavior, 0.5=distal limp tail, 1=complete limp tail, 2=limp tail and hind leg inhibition, 2.5=limp tail and weakness of hind legs, 3=limp tail and dragging of hind legs, 3.5=limp tail, complete paralysis of hind legs and animal is unable to right itself when placed on its side, 4=limp tail, complete hind leg paralysis and partial front leg paralysis, 4.5=limp tail, complete hind leg paralysis, partial front leg paralysis and no movement around the cage, 5=death.
Ten-weeks-old female C57bl6 mice (n=56) were immunized in the flank and neck with 200 μg/mouse MOG35-55 peptide (Hooke) emulsified in Complete Freund's Adjuvant containing Mycobacterium tuberculosis. Immediately after immunization, treatment was started and lasted for 27 days. […]

[1] = Emetic side-effects at the remyelination-inducing dose; format: in vivo
[2] = system: primary rat Schwann cells; assay: Differentiation of primary rat Schwann cells; format: cell-based; settings: Roflumilast 5 or 10 μM, BPN14770 1 or 5 μM
Procedure: FIG. 16: Inhibition of PDE4 by roflumilast and PDE4D by BPN induces differentiation of primary rat schwann cells. Primary rat schwann cells were isolated from p3 Wistar rats. Primary rat schwann cells were cultured onto an aligned network of electrospinned fibers and stimulated with vehicle (0.1% DMSO), the PDE4 inhibitor Roflumilast (5 μM or 10 μM) or the PDE4D inhibitor BPN (1 μM or 5 μM), both dissolved in 0.1% DMSO. Cells were fixated (IHC) or lysated (WB and qPCR) at day 14.
A: Primary rat schwann cells were stained for MBP (red) and MAG (green), both markers for Schwann cells differentiation (100.000 cells).
B: MBP and β-actin protein expression of primary rat schwann cells was analyzed using western blot (500.000 cells)
C: qPCR was conducted to evaluate changes in mRNA expression of MBP, PLP, MAG and SOX10. The expression of all these genes was increased upon PDE4 or PDE4D inhibition.
Primary rat Schwann cells were isolated from p3 Wistar rats. […] MBP and β-actin protein expression was analyzed using western blot analysis on primary rat Schwann cells (500.000 cells). […] Data were analyzed using a one-way ANOVA with Dunnett's multiple comparison test (compared to control); *p<0.05, **p<0.01, ***p<0.001. qPCR was conducted to evaluate changes in mRNA expression of MBP, PLP, MAG and SOX10.

OC(CN1CCOCC1)Cn1ccc(-c2ccc(OC(F)F)c(OC3CCCC3)c2)n1 (centres unmarked) [Gebr32a]
Clinical score of EAE mice (mice with EAE; 0.3 mg/kg s.c. twice a day): no effect

O=C(Nc1c(Cl)cncc1Cl)c1ccc(OC(F)F)c(OCC2CC2)c1 [roflumilast]
Emetic side-effects [1]: displayed emetic side-effects | Disease score of EAE mice, dose dependence (mice with EAE; 0.3 mg/kg and 3 mg/kg s.c. twice a day): dose-dependent decrease in disease score | MBP and MAG protein expression (IHC) ([2]; day 14): increases dose-dependently | mRNA expression of MBP, MAG, PLP and SOX10 (qPCR) ([2]; vs control conditions): increased
